Test results as given in US6765003B1, “3-Arylsulfonyl-2 (substituted methyl) propanoic acid derivatives as matrix metalloproteinase inhibitors” (Pharmacia Italia, SpA, priority 1999, dated 2004).
Where two headings read alike, the source gives them in different places.

Key:
patients = conditions: may be severe and dose-limiting; cited from earlier work
[1] = target: T1, Human gelatinase-A (MMP-2) (Homo sapiens, UniProt P08253); assay: MMP inhibition, internal fluorescence quenching method (MCA peptide substrate); format: biochemical
T1 sequence (P08253 110-660): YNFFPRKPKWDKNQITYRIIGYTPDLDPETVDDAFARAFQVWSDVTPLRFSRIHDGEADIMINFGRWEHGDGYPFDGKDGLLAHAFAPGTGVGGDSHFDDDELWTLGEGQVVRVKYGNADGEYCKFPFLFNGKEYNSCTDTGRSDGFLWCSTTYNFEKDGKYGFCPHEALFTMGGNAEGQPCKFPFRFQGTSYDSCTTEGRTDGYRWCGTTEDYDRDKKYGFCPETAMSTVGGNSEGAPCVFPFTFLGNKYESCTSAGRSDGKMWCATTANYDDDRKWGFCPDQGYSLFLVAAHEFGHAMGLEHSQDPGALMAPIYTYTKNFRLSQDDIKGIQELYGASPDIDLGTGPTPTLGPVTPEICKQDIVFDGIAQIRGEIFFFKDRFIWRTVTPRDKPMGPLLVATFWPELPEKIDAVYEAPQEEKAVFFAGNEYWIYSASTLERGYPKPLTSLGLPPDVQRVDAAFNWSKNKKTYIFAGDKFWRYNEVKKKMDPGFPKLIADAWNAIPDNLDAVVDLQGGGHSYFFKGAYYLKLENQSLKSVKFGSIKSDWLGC
Description: (§1) The inhibitory activity of the compounds of the present invention was evaluated in vitro against one or more of the MMP enzymes (gelatinases, collagenases, stromelysins) using the internal fluorescence quenching method. The assay method is based on the hydrolysis of the MMP substrate, MCA-Pro-Leu-Gly-Leu-DPA-Ala—Arg-NH2 at 37° C. (see Knight, C. G. et al., FEBS Lett. 296:263-266, 1992). The enzymes cleave at the Gly-Leu bond removing the internally quenching DPA group. The release of the highly fluorescent peptide MCA-Pro-Leu was monitored with a LS50 Perkin Elmer fluorimeter equipped with a Peltier-thermostated cell holder using an excitation wavelength of 326 nm and an emission wavelenght of 398 nm. Slis were set at 14/14. Proper determination of steady-state rates of substrate cleavage required a preincubation at 37° C. of 15 minutes to allow for complete equilibration of the enzyme-inhibitor complex. […] Rates of substrate hydrolysis, expressed as fluorescence arbitrary units per minute, were calculated by least-square analysis of the steady-state linear progression curves. The steady-state rates were fitted to the Michaelis equation describing competitive inhibition; in particular, Ki,app were determined by fining the data to the tight-binding equation of Morrison (Biochem. Biophys. Acta, 185:269-286, 1969) by non-linear methods.
(§2) Human gelatinase-A (MMP-2) was obtained as penzyme (72 kDa) and was activated with 1 mM 4-aminophenylmercuric acetate for 30 min at 37° C. immediately prior to use. The inhibitor was diluted into the assay from a stock solution in 100% DMSO, and controls substituted an equal volume of DMSO so that the final DMSO concentration from inhibitor and substrate dilution in all assays was 1%. The concentration of MMP-2 was 19.2 picoM. For compounds of formula (I) where X is —OH, the assay buffer was 50 mM Tris/HCl pH 6.5 containing 150 mM NaCl, 10 mM CaCl2, 0.01 mM ZnCl2 and 0.05% Brij35 (Protocol A). Other conditions were as stated above.
The compounds of formula (I) where X is —NHOH were tested against MMP-2 and MMP-1 under the conditions stated above, but the assay solution was buffered at pH 7.4 (Protocol B).

[2] = target: T2, Human fibroblast collagenase (MMP-1) (Homo sapiens, UniProt P03956); assay: as above; format: biochemical
T2 sequence (P03956 101-269): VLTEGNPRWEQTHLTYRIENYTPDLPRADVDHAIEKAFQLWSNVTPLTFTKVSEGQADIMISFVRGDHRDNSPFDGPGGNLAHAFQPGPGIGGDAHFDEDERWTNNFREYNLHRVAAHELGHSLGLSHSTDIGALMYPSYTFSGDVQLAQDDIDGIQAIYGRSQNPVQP
Description: as §1, §2
Assay conditions were the same as above, but enzyme concentration was 200 picoM.

rats = conditions: rat, in vivo
Description: Questions remain concerning their specificity, bioavailability, and potential long-tens toxicity (see Hodgson, J., ‘Remodeling MMPIs’, Biotechnology 13:554-557, 1995), especially because they are primarily intended (in arthritis and cancer, at least) for prolonged therapy. […] Although the cause of this toxicity is not well understood at this moment, it is thought to arise from an impairment in the normal tissue remodeling that is governed by one or more of the MMPs, primarily fibroblast collagenase (MMP-1). […] Thus, there is a strong need for better MMPIs, especially as far as the properties referred to above (specificity, bioavailability, long-term toxicity) are concerned.

[3] = Protocol A: Tris/HCl pH 6.5, 37° C., MMP-2 19.2 picoM, substrate 3 μM, carboxylic acids, read-out: MMP-2 Ki

SMILES | melting point [°C] | Ki [1, 3] [nM] | further results
CC1(C)SCCN(S(=O)(=O)c2ccc(Oc3ccncc3)cc2)[C@H]1C(=O)NO [AG3340] | – | – | musculoskeletal syndrome in patients (patients): cause a musculoskeletal syndrome characterized by joint pain and stiffness
COc1ccc(S(=O)(=O)N(Cc2cccnc2)[C@@H](C(=O)NO)C(C)C)cc1 [CGS27023A] | – | – | musculoskeletal syndrome in patients (patients): cause a musculoskeletal syndrome characterized by joint pain and stiffness
CC1(C)NC(=O)N(CC(CS(=O)(=O)c2ccc(-c3ccc(Cl)cc3)cc2)C(=O)O)C1=O (stereo not drawn) [Example 9, 3-[(4′-chloro[1,1′-biphenyl]-4-yl)sulfonyl]-2-[(4,4-dimethyl-2,5-dioxo-1-imidazolidinyl)methyl]propanoic acid] | 242 to 245 | 3 | –
O=C(O)C(CN1C(=O)CNC1=O)CS(=O)(=O)c1ccc(-c2ccc(Cl)cc2)cc1 (stereo not drawn) [Example 11, 3-[(4′-chloro[1,1′-biphenyl]-4-yl)sulfonyl]-2-[(2,5-dioxo-1-imidazolidinyl)methyl]propanoic acid] | 188 to 190 | 4 | –
O=C(NO)C(CN1C(=O)CNC1=O)CS(=O)(=O)c1ccc(-c2ccc(Cl)cc2)cc1 (stereo not drawn) [Example 12, 3-[(4′-chloro[1,1′-biphenyl]-4-yl)sulfonyl]-N-hydroxy-2-[(2,5-dioxo-1-imidazolidinyl)methyl]propanamide] | 150 to 156 | – | Ki ([2]; Protocol B: pH 7.4, 37° C., hydroxamic acids (X is —NHOH), read-out: MMP-1 Ki (picoM)): 17.1 nM; Ki ([1]; Protocol B: pH 7.4, 37° C., hydroxamic acids (X is —NHOH), read-out: MMP-2 Ki (picoM)): 0.069 nM
O=C(O)C(CSc1ncccn1)CS(=O)(=O)c1ccc(-c2ccc(Cl)cc2)cc1 (stereo not drawn) [Example 22, 3-[(4′-chloro[1,1′-biphenyl]-4-yl)sulfonyl]-2-[(2-pyrimidinylsulfanyl)methyl]-propanoic acid] | 166 to 168 | 8 | Ki ([2]; Protocol A: pH 6.5, 37° C., enzyme 200 picoM, substrate 3 μM, carboxylic acids, read-out: MMP-1 Ki): 8030 nM
Nc1nnc(SCC(CS(=O)(=O)c2ccc(-c3ccc(Cl)cc3)cc2)C(=O)O)s1 (stereo not drawn) [Example 23, 3-[(4′-chloro[1,1′-biphenyl]-4-yl)sulfonyl]-2-[[(5-amino-1,3,4-thiadiazol-2-yl)sulfanyl]methyl]propanoic acid] | 184 to 186 | 25 | –
Cc1cc(SCC(CS(=O)(=O)c2ccc(-c3ccc(Cl)cc3)cc2)C(=O)O)nc(C)n1 (stereo not drawn) [Example 26, 3-[(4′-chloro[1,1′-biphenyl]-4-yl)sulfonyl]-2-[[(2,6-dimethyl-4-pyrimidinyl)sulfanyl]methyl]propanoic acid] | 170 to 172 | 26.8 | –
Cc1cc(C)nc(SCC(CS(=O)(=O)c2ccc(-c3ccc(Cl)cc3)cc2)C(=O)O)n1 (stereo not drawn) [Example 27, 3-[(4′-chloro[1,1′-biphenyl]-4-yl)sulfonyl]-2-[[(4,6-dimethyl-2-pyrimidinyl)sulfanyl]methyl]propanoic acid] | 170 to 172 | 22.8 | –
O=C(O)C(CSc1nccs1)CS(=O)(=O)c1ccc(-c2ccc(Cl)cc2)cc1 (stereo not drawn) [Example 28, 3-[(4′-chloro[1,1′-biphenyl]-4-yl)sulfonyl]-2-[(1,3-thiazol-2-ylsulfanyl)methyl]propanoic acid] | 152 to 154 | 6.6 | –
Cn1nnnc1SCC(CS(=O)(=O)c1ccc(-c2ccc(Cl)cc2)cc1)C(=O)O (stereo not drawn) [Example 32, 3-[(4′-chloro[1,1′-biphenyl]-4-yl)sulfonyl]-2-[[(1-methyl-1H-tetrazol-5-yl)sulfanyl]methyl]propanoic acid] | 98 to 100 | 26 | –
CNC(=O)[C@@H](NC(=O)[C@H](CC(C)C)[C@H](O)C(=O)NO)C(C)(C)C [Marimastat] | – | – | joint toxicity (histology of stifle joints) (rats): elicited histological alteration of stifle joints
CNC(=O)[C@@H](NC(=O)[C@@H](CC(=O)NO)CC(C)C)C(C)(C)C [Ro31-9790] | – | – | joint toxicity (histology of stifle joints) (rats): elicited histological alteration of stifle joints
